Test results published in ChEMBL document CHEMBL6103628, “Structural Optimization of Covalent Inhibitors for Deubiquitinase ChlaDUB1 of Chlamydia trachomatis as Antibiotic Agents” (J Med Chem, 2025).
Active and inactive are the calls of the source. No cut-off for these calls is given here.

Key:
Escherichia coli = experiment: Antimicrobial activity against Escherichia coli K12 upto 256 microg/ml incubated for 20 hrs by resazurin staining based microtiter plate reader analysis; format: functional, organism-based; conditions: dose <= 256.0 µg/ml
[1] = target: T1, OTU domain-containing protein 3 (Homo sapiens) (UniProt Q5T2D3); experiment: Inhibition of human OTUD3 at 35 uM relative to control
T1 sequence (whole entry): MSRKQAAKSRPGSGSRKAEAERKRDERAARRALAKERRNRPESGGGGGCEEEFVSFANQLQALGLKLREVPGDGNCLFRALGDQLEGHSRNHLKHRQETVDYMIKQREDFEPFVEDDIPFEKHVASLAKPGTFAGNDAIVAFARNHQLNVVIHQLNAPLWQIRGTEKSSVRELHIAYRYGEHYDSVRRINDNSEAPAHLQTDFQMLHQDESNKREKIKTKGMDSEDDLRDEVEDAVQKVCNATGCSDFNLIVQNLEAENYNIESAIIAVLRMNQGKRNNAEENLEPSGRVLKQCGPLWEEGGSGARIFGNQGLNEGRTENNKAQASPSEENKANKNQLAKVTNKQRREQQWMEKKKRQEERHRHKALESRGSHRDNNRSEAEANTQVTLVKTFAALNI

[2] = target: T2, Ubiquitin carboxyl-terminal hydrolase isozyme L3 (Homo sapiens) (UniProt P15374); experiment: Inhibition of human UCHL3 at 35 uM relative to control
T2 sequence (whole entry): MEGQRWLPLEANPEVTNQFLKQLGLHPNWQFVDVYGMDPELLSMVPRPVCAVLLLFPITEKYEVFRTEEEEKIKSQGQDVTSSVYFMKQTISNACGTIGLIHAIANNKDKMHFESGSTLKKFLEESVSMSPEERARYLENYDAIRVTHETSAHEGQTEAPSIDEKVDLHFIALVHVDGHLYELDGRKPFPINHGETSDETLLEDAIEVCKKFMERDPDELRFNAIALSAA

HEK293 = experiment: Cytotoxicity against HEK293 cells assessed as reduction in cell viability upto 64 ug/mL measured after 20 hrs by XTT assay; format: toxicity, cell-based; conditions: human, hek293, 20 h, dose < 64 µg/ml

N#Cc1nccc(C(=O)NCc2nn(C(=O)Cc3ccccc3)c3ccccc23)n1
Activity (Escherichia coli): inactive
inhibition [1]: < 25%
inhibition [2]: < 25%
Activity (HEK293): Non-toxic
